# Results published in patent publication US20070293539A1, “Methods for the treatment of synucleinopathies” (priority 2004, published 2007).
# “Also recorded” adds a separate entry of the source.
# Assays:
# α-synuclein [1] = assay: α-synuclein accumulation in SH-SY5Y cells infected with α-synuclein-expressing adenovirus, Western blotting normalized against actin; assay type: cell-based
# Description: (§1) Viral Infection: Viral infection and MTT assay in SH-SY5Y cells: The viruses were amplified and purified according to the published procedure. SH-SY5Y cells were grown on 100 mm petri-dishes and induced with 100 nM RA for 3-5 days before the virus infection with M.I.O at 75. Viruses were diluted with DPBS to desired M.I.O. After four hours of incubation, 10 ml growth medium was added. On the second day, cells were splitted into 96-well plates and treated with compounds for next 48 hours. The growth medium in each well was replaced with growth medium with 5 ug/ml MTT. Medium was removed after three hours incubation, and 200 ul isopropyl (0.04N HCl) was added into each well. The signal was read at 570 nm.
# Western Blotting: Following transfer of SDS gels onto NC membrane, all membranes were blocked with 5% non-fat milk in TBST (50 mM Tris-HCl pH7.4, 150 mM NaCl, 0.1% Tween 20), and incubated with primary antibody overnight with 1% BSA in TBST, washed three times with TBST, and incubated with horseradish peroxidase-conjugated secondary antibody for 1 hour (Promega). Bound antibodies were detected using enhanced chemiluminascence (NEM).
# Since α-synuclein neurotoxicity is dose-dependent, it follows that accumulation of α-synuclein, caused by UCH-L1 farnesylation, should promote its toxicity. […] (F) Cell viability was assessed by the amount of metabolic activity using MTT assay. […]
# UCH-L1 [2] = assay: total amount and turnover of UCH-L1 in SH-SY5Y cells (pulse-chase experiment not shown); assay type: cell-based
# UCH-L1 [3] = assay: 2D electrophoresis and Western blotting of membrane-bound and cytosolic UCH-L1 in SH-SY5Y cells; assay type: cell-based; details: compared to cells treated with DMSO
# Description: 2D electrophoresis: For the isolation of total cellular protein, cultured SH-SY5Y cells maintained as described above were rinsed with ice-cold PBS. Cells were lysed in 1 ml dSDS buffer (50 mM Tris-HCl, pH 8.0 0.1% SDS) supplemented with protease inhibitor cocktail. Lysates were boiled for 3 min, and were treated with Dnase and Rnase as described. Lysates were precipitated with ice-cold acetone for at least 2 hours, and pellets were resuspended in 2D sample buffer (8M urea, 0.5% CHAPS, 0.2% DTT, 0.5% IPG buffer, 0.002% bromophenol blue). 2D electrophoresis was carried out according to manufacture's protocol (Amersham Life Science). 7 cm pH 4-7 strips were used. For SH-SY5Y membrane fraction, culture SH-SY5Y cells were rinsed with cold PBS and harvested with lysis buffer (50 mM Tris-HCl, pH 8.0, 1 mM ZnAc2, 250 mM sucrose). Lysate was passed through 25G needles for several times and spun at 1000 g for 5 min. […]
# (§2) Western Blotting: Following transfer of SDS gels onto NC membrane, all membranes were blocked with 5% non-fat milk in TBST (50 mM Tris-HCl pH7.4, 150 mM NaCl, 0.1% Tween 20), and incubated with primary antibody overnight with 1% BSA in TBST, washed three times with TBST, and incubated with horseradish peroxidase-conjugated secondary antibody for 1 hour (Promega). Bound antibodies were detected using enhanced chemiluminascence (NEM). […]
# [4] = tested on: SH-SY5Y cells infected by α-synuclein-expressing adenovirus; assay: α-synuclein toxicity in SH-SY5Y cells infected by α-synuclein-expressing adenovirus (Trypan blue viable cell counting, MTT assay); assay type: cell-based; details: SH-SY5Y cells overexpressing α-synuclein via adenoviral vector, compared to DMSO
# Description: as §1
# Viable cell counting: At stated time poins, SH-SY5Y cells were trypsinized with 100 ul trypsin-EDTA for 1 minute and neutralized with 400 ul growth medium. Cell suspension was made up by mixing 0.2 ml of cells in growth medium, 0.3 ml of HBSS and 0.5 ml of 0.4% Trypan Blue solution. Viable cell numbers were counted by standard cell counting chamber.
# Since α-synuclein neurotoxicity is dose-dependent, it follows that accumulation of α-synuclein, caused by UCH-L1 farnesylation, should promote its toxicity. […] These cells express high endogenous levels of UCH-L1. […] The unit of y-axis is 10^5/ml. (F) Cell viability was assessed by the amount of metabolic activity using MTT assay. […]
# α-synuclein [5] = assay: α-synuclein degradation assay in transfected COS-7 cells, quantitative Western blotting; assay type: cell-based
# From the text: Plasmids: C220S cDNA was generated by PCR site-specific mutagenesis. For the PCR, the 5′ primer is uchforw SEQ ID NO: 1 ([…]), and 3′ primer is uchc220s SEQ ID NO:2 (CTAAGA […]). Wt UCH-L1 served as the template. The PCR fragment was inserted into pcDNA vector. For S18YC220S mutant, S18Y UCH-L1 served as the template in PCR. For the FLAG tagged UCH-L1, the 5′ primer is FLAGuchforw SEQ ID NO: 3 ([…] CGATGGAG), and the 3′ primer is uchrev SEQ ID NO: 4 ([…]). Wt UCH-L1 or C220S served as the template. PCR fragment was purified and inserted into pcDNA vector. For the FLAG tagged UCH-L3, the 5′ primer is L3HindIII SEQ ID NO: 5 (CTAAAGCTTATGGACTAC […]), the 3′ primer is L3XhoISAA SEQ ID NO: 6 ([…]). […] After 24 hours of incubation, the cells were lysed with Tris buffer (50 mM Tris, 2% SDS, 0.1% NP-40), and subjected to SDS-PAGE, followed by quantitative Western blotting.
# as §2
# [6] = human, in vivo; cited from earlier work
# [7] = taken in a low dose; cited from earlier work
compound,measurement,setting,value
COC(=O)[C@H](CCSC)NC(=O)c1ccc(NC[C@@H](N)CS)cc1-c1ccccc1 [FTI-277],amount of α-synuclein,α-synuclein [1],reducing the amount of α-synuclein accumulation; also recorded: reduced the amount of α-synuclein
same,total amount of UCH-L1,UCH-L1 [2],reduced the total amount of UCH-L1
same,rate of turnover of UCH-L1,UCH-L1 [2]; pulse-chase experiment not shown,increased its rate of turnover
same,amount of cytosolic UCH-L1,UCH-L1 [3],without affecting
same,amount of membrane bound UCH-L1,UCH-L1 [3],significant decrease; also recorded: decreased the amount of the membrane-associated species; also recorded: reducing the amount of membrane-associated protein
same,α-synuclein toxicity (loss of cells),[4],inhibits synuclein toxicity; also recorded: rescued α-synuclein toxicity; also recorded: significantly decreased loss of cells
same,synuclein level,α-synuclein [5]; COS-7 cells,lowers synuclein level
CC(=O)N[C@@H](CSC(=O)[C@]1([C@@H](O)C(C)C)NC(=O)[C@H](C)[C@@H]1O)C(=O)O [lactacysteine],accumulation of α-synuclein,"α-synuclein [5]; transfected COS-7 cells, 16 kDa α-synuclein normalized against actin",100%
N[C@@H](Cc1ccc(O)c(O)c1)C(=O)O [levodopa],patients that do not respond,[6],About 15%
C#CCN(C)[C@H](C)Cc1ccccc1 [selegiline],delay of the need for levodopa,[7],roughly three
